Positions of bridges follow the written chain, without caps; N, C: chain ends. Residues, ends and D or L forms follow the SMILES beside them. No end group written: not given here. *: point of attachment. Biotin = O=C1N[C@H]2[C@H](CS[C@H]2CCCCC(=O)*)N1; Ahx = NCCCCCC(=O)O
Legend:
[1] = system: Fc fragment of hIgG; assay: ELISA assay of biotinylated synthetic peptides on Fc fragment; type: binding, human; conditions: biotinylated peptide, FIG. 6
Method: (§1) The binding activity of the thus obtained biotinylated synthetic peptides to human IgG was assayed by an ELISA assay. The ELISA assay was conducted basically in a manner similar to that in Example 1. Specifically, wells coated with human IgG (100 ng/50 μl/well) were blocked by the addition of 0.5% BSA. A biotinylated synthetic peptide and alkaline phosphatase-labeled streptavidin (SA-AP) were mixed in advance at a molar ratio of 4:1 and then the mixture was added to the well, followed by 1 hour of reaction. Para-nitrophenyl phosphate (Wako) was used for color development. Detection was carried out by measuring absorbance at 405 nm. As a positive control of human IgG, the Fc fragment of hIgG was used. As other control proteins, human IgA and IgE, mouse IgG, IgA, and IgE, hTF, fetal bovine serum (FBS), HSA, BSA, and gelatin were used.

[2] = system: human IgG; assay: ELISA assay of biotinylated synthetic peptides on human IgG; type: binding; conditions: FIG. 6; for binding to human IgG: biotinylated peptide
Method: as §1

[3] = system: human IgG; assay: immunoprecipitation of human IgG with peptide- or phage-immobilized magnetic beads; type: binding; conditions: immobilized on magnetic beads, FIG. 9; for immunoprecipitated human IgG: western blotting
Method: The above cloned T7 phage G-1 (1.0×10^12 pfu) subjected to ultracentrifuge purification or a synthetic peptide IMGpep-1 (150 nmol) was immobilized on 3 mg of tosyl-activated M450 Dynabeads magnetic beads (Dynal) via covalent binding to the terminal amino group according to the protocols recommended by the manufacturer. The beads were blocked with a PBS solution containing 0.5% BSA and then added to 1 ml of hIgG/BSA/PBS (10 μg/ml hIgG and 1 mg/ml BSA), followed by 1 hour of reaction at room temperature while mixing the solution via stirring. Beads were washed 3 times with PBST, SDS-sample buffer was added thereto, and then SDS-PAGE fractionation was carried out. Subsequently, they were subjected to western blotting analysis using a biotinylated anti-hIgG goat polyclonal antibody (Goat Anti-hIgG-pAb-biotin; Pharmingen) and SA-HRP, and then human IgG immunoprecipitated by binding to beads was detected.
Furthermore, immunoprecipitation reaction was similarly carried out using phage clones G-1 415 or IMGpep-2 instead of phage G-1 or IMGpep-1 to detect human IgG. Here, the phage clone G-1 415 (Novagen) is a phage displaying G-1 peptide at all the 415 G10 proteins composing the capsid of T7 phage. Moreover, immunoprecipitation reaction and detection were similarly carried out using an anti-hIgG goat (Fab′)2 fragment, wild-type T7 phage, and BSA, as a control of phage G-1 or IMGpep-1.

[4] = system: human IgG; assay: SPR kinetic analysis of binding between synthetic peptides and human IgG; conditions: for association rate constants (ka) / dissociation rate constants (kd) / Kd: biotinylated peptide immobilized on sensor chip SA, human IgG as analyte, 25° C.; for Kd: read-out: Dissociation constants (Kd)
Method: Binding between the synthetic peptide IMGpep-1, IMGpep-1E6Q, IMGpep-4, or IMGpep-4K6R and human IgG was subjected to kinetic analysis of binding using surface plasmon resonance (SPR). SPR analysis was carried out using BIAcore2000 (BIAcore) at 25° C. Necessary reagents and sensor chips were purchased from BIAcore and then used. A 50 μM solution (pH 5) of each of four biotinylated synthetic peptides (IMGpep-1, IMGpep1E6Q, IMGpep4, and IMGpep-4K6R) was injected over a sensor chip SA, so as to immobilize the peptide on the chip. The amount of each peptide to be immobilized was adjusted so that the RU (response unit) ranged from 1500 to 2000. Subsequently, human IgG (analyte) was injected at a flow rate of 10 μl/min and at various concentrations (660 nM, 330 nM, 165 nM, 82 nM, and 41 nM) through flow cells with the aforementioned sensor chips SA on which the biotinylated-peptides had been immobilized. Binding reaction between human IgG and the peptides was measured. Thereafter, washing with running buffer (HBS-T) was conducted and then dissociation reaction was measured. For washing/elution of bound analytes from the sensor chips, 0.2 M glycine-HCl buffer (pH 2.7) was used. Binding parameters were analyzed using BIA evaluation Version 3.2 software.

[5] = system: human IgG isotypes (hIgG1 to hIgG4); assay: ELISA assay of biotinylated synthetic peptides on human IgG isotypes; type: binding; conditions: FIG. 7
Method: as §1
Furthermore, the binding activity of the biotinylated synthetic peptides to human IgG isotypes (hIgG1 to hIgG4), was assayed similarly by an ELISA assay. As a control protein of human IgG, BSA was used.

[6] = molecular target: T1, human IgG MRA (Homo sapiens, UniProt P01857); assay: immunoprecipitation of MRA fractions with IMGpep-4K6R peptide; type: binding
T1 construct: purchased Chugai Pharmaceutical
Method: An immunoprecipitation experiment using an IMGpep-4K6R peptide was conducted by a method similar to that employed in Example 8 for each of an untreated MRA sample, an acid-treated MRA sample (acid treated for 10 minutes at pH 2.2 and 4° C.), a flow-through fraction obtained by passing an acid-treated MRA sample through a biotinylated IMGPep-4K6R peptide-immobilized column, and a purified acid-denatured MRA sample (an adsorbed fraction obtained by passing a human IgG sample subjected to 10 minutes of acid treatment at pH 2.2 and 4° C. through an IMGpep-4K6R peptide-immobilized column). IgG precipitated with the peptide immobilized on magnetic beads was subjected to 12.5% SDS-PAGE and then to CBB staining, and then observed.

[7] = molecular target: T2, human MRA (IgG) (Homo sapiens, UniProt P01857); assay: dot blotting detection of human MRA (IgG) on nitrocellulose membranes; type: binding
T2 construct: purchased Chugai Pharmaceutical
Method: Specifically, acid-treated human MRA (IgG) and untreated human MRA (IgG) were spotted on nitrocellulose membranes in an amount of 1.5 ng, 3 ng, 6 ng, 12.5 ng, 25 ng, 50 ng, and 100 ng per spot. The membranes were dried for 5 minutes and then 0.5% BSA was added for blocking for 2 hours at room temperature. Here, acid-treated human MRA was prepared by adding 10 μl of 1 M glycine-HCl (pH 2.8) to 100 μl of humanized anti-human IL-6 receptor IgG antibody (MRA) (2000 μg/ml, PBS solution), carrying out incubation at 40° C. for 10 minutes, and then neutralizing it by the addition of 30 μl of 1 M Tris-HCl (pH 8.7).
The mixture was added to the membranes blocked as described above, followed by 1 hour of reaction. After 3 times of washing with PBS containing 0.1% Tween20, a chemiluminescence reagent (Chemi-Lumi One, Nakalai Tesque) was added. Images were analyzed for detection using a LAS-1000 Image Analyzer (Fuji Film).

[8] = molecular target: T3, anti-HER2 human IgG (Homo sapiens, UniProt P01857); assay: separation on IMGpep-4K6R-immobilized column; type: binding; conditions: untreated anti-HER2 human IgG sample
T3 construct: purchased Herceptin
Method: Moreover, a biotinylated IMGPep-4K6R peptide (biotin-spacer-[…] (SEQ ID NO: 11)) solution (500 μM, 1 ml) was injected to a HiTrap Streptavidin HP column (GE Healthcare) to prepare the column in which IMGPep-4K6R was immobilized. The antibody sample was injected at a flow rate of 0.4 ml/min to the IMGPep-4K6R-immobilized column. Gradient elution was carried out using from 20 mM phosphate buffered saline (PBS, pH 7.0) containing 0.1 M NaCl to 0.1M glycine-HCl (pH 2.5) containing 0.1 M NaCl.

[9] = molecular target: IgG antibody; conditions: literature (DeLano et al.; Dias et al.); cited from earlier work

T2 sequence (P01857 1-330 isoform P01857-1, other chains not shown): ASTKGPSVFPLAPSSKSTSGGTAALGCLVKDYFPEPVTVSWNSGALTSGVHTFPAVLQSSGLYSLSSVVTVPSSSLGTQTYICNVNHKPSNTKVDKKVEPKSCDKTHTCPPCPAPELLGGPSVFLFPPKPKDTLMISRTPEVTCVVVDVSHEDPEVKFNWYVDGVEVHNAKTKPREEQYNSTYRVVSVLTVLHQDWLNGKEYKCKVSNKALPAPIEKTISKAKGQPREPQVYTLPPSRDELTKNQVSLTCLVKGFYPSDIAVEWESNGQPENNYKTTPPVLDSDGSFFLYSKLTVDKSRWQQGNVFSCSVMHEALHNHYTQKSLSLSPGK
T1 sequence (P01857 1-330 isoform P01857-1, other chains not shown): as above
T3 sequence (P01857 1-330 isoform P01857-1, other chains not shown): as above

In the case of `CC(C)C[C@@H]1NC(=O)CNC(=O)[C@H](Cc2c[nH]c3ccccc23)NC(=O)[C@H](CCC(=O)O)NC(=O)[C@H](CO)NC(=O)[C@H](CCCNC(=N)N)NC(=O)[C@H](Cc2c[nH]c3ccccc23)NC(=O)[C@H](Cc2ccc(O)cc2)NC(=O)CNC(=O)[C@@H](NC(=O)CNC(=O)CCCCCNC(=O)CCCC[C@@H]2SC[C@@H]3NC(=O)N[C@@H]32)CSSC[C@@H](C(=O)NCC(=O)O)NC1=O` [IMGpep-1] ({Biotin-Ahx}-GCGYWRSEWGLCG-OH; disulfide 2-12), the “binding to the Fc fragment of human IgG” value [1] is reported as “bound to the Fc fragment of human IgG”, the “binding to human IgG” value [2] is reported as “specifically bound to human IgG” and the “human IgG trapping efficiency compared with IMGpep-2” value [3] is reported as “clearly higher”. For the same molecule, the “immunoprecipitated human IgG” value [3] was “clearly observed”, the “association rate constants (ka)” value [4] was 20000 M⁻¹ s⁻¹ and the “dissociation rate constants (kd)” value [4] was 0.00034 s⁻¹. For the same molecule, the Kd [4] was 17 nM and the “binding activity to human IgG1, IgG2, IgG3, and IgG4” value (shortened to “binding activity to human IgG1, IgG2”) [5] was “strong binding activity”.

With `CC(C)C[C@@H]1NC(=O)CNC(=O)[C@H](Cc2c[nH]c3ccccc23)NC(=O)[C@H](C)NC(=O)[C@H](CCCNC(=N)N)NC(=O)[C@@H]2CCCN2C(=O)[C@H](Cc2c[nH]c3ccccc23)NC(=O)[C@H](Cc2ccc(O)cc2)NC(=O)CNC(=O)[C@H]([C@@H](C)O)NC(=O)[C@@H](NC(=O)CNC(=O)CCCCCNC(=O)CCCC[C@@H]2SC[C@@H]3NC(=O)N[C@@H]32)CSSC[C@@H](C(=O)NCC(=O)O)NC1=O` [IMGpep-4K6R] the “immunoprecipitation of MRA antibody” value ([6]; flow-through fraction of acid-treated MRA, lane 4) was “never observed”, the “immunoprecipitation of MRA antibody” value ([6]; untreated MRA, lane 1) was “not immunoprecipitated” and the “binding activity compared with the original peptides IMGpep-1 and IMGpep-4” value [2] was “significantly and drastically increased”. For the same molecule, the “association rate constants (ka)” value [4] was 16000 M⁻¹ s⁻¹, the “dissociation rate constants (kd)” value [4] was 0.00038 s⁻¹ and the Kd [4] was 24 nM. The “antibody sample sufficiently detected” value ([7]; acid-treated MRA (pH 2.8, 40° C., 10 minutes), K6R(A)) was no more than 1.5 ng/mL, the “IgG-detection sensitivity and intensity after acid treatment” value ([7]; acid-treated MRA, K6R(A)) was “greatly enhanced” and the “lowest spot of untreated human MRA (IgG) detected” value ([7]; untreated MRA, K6R(N)) was no more than 1.5 ng/mL. The “overall signal intensity of the detected spots” value ([7]; untreated MRA, K6R(N)) was “significantly weak”, the “binding activity to human IgG1, IgG2” value [5] was “strong binding activity” and the “binding activity to human IgG1 to IgG4 relative to IMGpep-1 and IMGpep-4” value [5] was “increase to a greater extent”. For the same molecule, the “behaviour of IgG on the column” value [8] was “passed through”.

For “GSGYWRSEWGLSG ({Biotin-Ahx}-GSGYWRSEWGLSG) [IMGpep-1CS]”, the “binding to human IgG” value [2] was “almost lose the binding activity”, the “increased response signal due to the binding” value ([4]; control ligand immobilized, human IgG injected) was “never observed” and the “detection of spots of untreated human MRA (IgG)” value ([7]; untreated MRA, CS(N)) was “could not detect any spots”. For the same molecule, the “binding activity to human IgG1, IgG2” value [5] was “almost completely lose its binding activity”.

For DCAWHLGELVWCT [Fc-III], the Kd [9] is listed as 185 nM.

In the case of `CC(C)C[C@@H]1NC(=O)CNC(=O)[C@H](Cc2c[nH]c3ccccc23)NC(=O)[C@H](CCC(N)=O)NC(=O)[C@H](CO)NC(=O)[C@H](CCCNC(=N)N)NC(=O)[C@H](Cc2c[nH]c3ccccc23)NC(=O)[C@H](Cc2ccc(O)cc2)NC(=O)CNC(=O)[C@@H](NC(=O)CNC(=O)CCCCCNC(=O)CCCC[C@@H]2SC[C@@H]3NC(=O)N[C@@H]32)CSSC[C@@H](C(=O)NCC(=O)O)NC1=O` [IMGpep-1E6Q] ({Biotin-Ahx}-GCGYWRSQWGLCG-OH; disulfide 2-12), the “binding activity compared with the original peptides IMGpep-1 and IMGpep-4” value [2] is reported as “significantly and drastically increased”, the “association rate constants (ka)” value [4] is reported as 15000 M⁻¹ s⁻¹ and the “dissociation rate constants (kd)” value [4] is reported as 0.00031 s⁻¹. The Kd [4] was 21 nM, the “binding activity to human IgG1, IgG2” value [5] was “strong binding activity” and the “binding activity to human IgG1 to IgG4 relative to IMGpep-1 and IMGpep-4” value [5] was “increase to a greater extent”.

With `CC(C)C[C@@H]1NC(=O)CNC(=O)[C@H](Cc2c[nH]c3ccccc23)NC(=O)[C@H](C)NC(=O)[C@H](CCCCN)NC(=O)[C@@H]2CCCN2C(=O)[C@H](Cc2c[nH]c3ccccc23)NC(=O)[C@H](Cc2ccc(O)cc2)NC(=O)CNC(=O)[C@H]([C@@H](C)O)NC(=O)[C@@H](NC(=O)CNC(=O)CCCCCNC(=O)CCCC[C@@H]2SC[C@@H]3NC(=O)N[C@@H]32)CSSC[C@@H](C(=O)NCC(=O)O)NC1=O` [IMGpep-4] ({Biotin-Ahx}-GCTGYWPKAWGLCG-OH; disulfide 2-13) the “binding to the Fc fragment of human IgG” value [1] was “bound to the Fc fragment of human IgG”, the “binding to human IgG” value [2] was “specifically bound to human IgG” and the “association rate constants (ka)” value [4] was 14000 M⁻¹ s⁻¹. For the same molecule, the “dissociation rate constants (kd)” value [4] was 0.00041 s⁻¹, the Kd [4] was 28 nM and the “binding activity to human IgG1, IgG2” value [5] was “strong binding activity”.

With GCTGFWEREWGLCG [IMGpep-2] the “immunoprecipitated human IgG” value [3] was “clearly observed”.

Reference: patent US8372950B2, “IgG binding peptide” (Kagoshima University, priority 2006, dated 2013)
